{"source": "patent US20130143929A1", "about": "“FUNGICIDAL IMIDAZOLES” (EI DU PONT DE NEMOURS AND COMPANY, priority 2010, published 2013)", "type_in_all_cases": "in vivo", "key": {"[1]": {"test_system": "Botrytis cinerea (the causal agent of tomato Botrytis)", "assay": "Test C: tomato Botrytis, preventive spray on tomato seedlings, visual disease rating", "conditions": "for Test C rating (100 = 100% disease control, 0 = no disease control relative to the controls): tomato Botrytis, preventive spray on tomato seedlings; for Test C rating (% disease control, tomato Botrytis): 100 = 100% disease control", "description": "(§1) General protocol for preparing test suspensions for Tests A-D: the test compounds were first dissolved in acetone in an amount equal to 3% of the final volume and then suspended at the desired concentration (in ppm) in acetone and purified water (50/50 mix by volume) containing 250 ppm of the surfactant Trem® 014 (polyhydric alcohol esters). The resulting test suspensions were then used in Tests A-D. Spraying a 200 ppm test suspension to the point of run-off on the test plants was the equivalent of a rate of 800 g/ha.\n(§2) The test suspension was sprayed to the point of run-off on tomato seedlings. The following day the seedlings were inoculated with a spore suspension of Botrytis cinerea (the causal agent of tomato Botrytis) and incubated in a saturated atmosphere at 20° C. for 48 h, and then moved to a growth chamber at 24° C. for 3 days, after which time visual disease ratings were made.\n(§3) Results for Tests A-E are given in Table A. In the Table, a rating of 100 indicates 100% disease control and a rating of 0 indicates no disease control (relative to the controls). A dash (—) indicates no test results. An asterisk “*” next to the rating value indicates a 40 ppm test suspension was used."}, "[2]": {"test_system": "Blumeria graminis f. sp. tritici (also known as Erysiphe graminis f. sp. tritici, the causal agent of wheat powdery mildew)", "assay": "Test D: wheat powdery mildew, preventive spray on wheat seedlings, visual disease rating", "conditions": "for Test D rating (100 = 100% disease control, 0 = no disease control relative to the controls): wheat powdery mildew, preventive spray on wheat seedlings; for Test D rating (% disease control, wheat powdery mildew): 100 = 100% disease control", "description": "as §1\nThe test suspension was sprayed to the point of run-off on wheat seedlings. The following day the seedlings were inoculated with a spore dust of Blumeria graminis f. sp. tritici, (also known as Erysiphe graminis f. sp. tritici, the causal agent of wheat powdery mildew) and incubated in a growth chamber at 20° C. for 8 days, after which time visual disease ratings were made.\nas §3"}, "[3]": {"test_system": "Septoria tritici (the causal agent of wheat leaf blotch)", "assay": "Test B: wheat leaf blotch, preventive spray on wheat seedlings, visual disease rating", "conditions": "for Test B rating (100 = 100% disease control, 0 = no disease control relative to the controls): wheat leaf blotch, preventive spray on wheat seedlings; for Test B rating (% disease control, wheat leaf blotch): 100 = 100% disease control", "description": "as §1\nas §2, with “wheat” for “tomato”, “Septoria tritici” for “Botrytis cinerea”, “wheat leaf blotch)” for “tomato Botrytis)”, “24°” for “20°”, “20°” for “24°”, “19” for “3”\nas §3"}, "[4]": {"test_system": "Puccinia recondite f. sp. tritici (the causal agent of wheat leaf rust)", "assay": "Test A: wheat leaf rust, preventive spray on wheat seedlings, visual disease rating", "conditions": "for Test A rating (100 = 100% disease control, 0 = no disease control relative to the controls): wheat leaf rust, preventive spray on wheat seedlings; for Test A rating (% disease control, wheat leaf rust): 100 = 100% disease control", "description": "as §1\nas §2, with “wheat” for “tomato”, “Puccinia recondite f. sp. tritici” for “Botrytis cinerea”, “wheat leaf rust)” for “tomato Botrytis)”, “24” for “48”, “20°” for “24°”, “7” for “3”\nas §3"}, "[5]": {"conditions": "asterisk: 40 ppm test suspension"}, "[6]": {"conditions": "no asterisk: standard test suspension concentration, 0 = no control relative to controls"}, "[7]": {"conditions": "asterisk: 40 ppm test suspension, 0 = no control"}, "[8]": {"conditions": "no asterisk (standard test suspension concentration, not 40 ppm)"}}, "note": "Marks after values point to notes of the source that are not given here.", "data": [{"smiles": "Cc1cccc(F)c1-n1c(C)nc(Br)c1C(O)c1ccc(F)cc1Cl", "note": "(stereo not drawn) [compound 342]", "values": [{"measurement": "Test C rating (100 = 100% disease control, 0 = no disease control relative to the controls)", "setting": "[1]; [5]", "result": "98* %"}, {"measurement": "Test D rating (100 = 100% disease control, 0 = no disease control relative to the controls)", "setting": "[2]; [5]", "result": "64* %"}, {"measurement": "Test B rating (100 = 100% disease control, 0 = no disease control relative to the controls)", "setting": "[3]; [5]", "result": "100* %"}, {"measurement": "Test A rating (100 = 100% disease control, 0 = no disease control relative to the controls)", "setting": "[4]; [5]", "result": "94* %"}]}, {"smiles": "Cc1ncc(C(O)c2cccnc2F)n1-c1c(F)cc(F)cc1F", "note": "(stereo not drawn) [compound 413]", "values": [{"measurement": "Test C rating (% disease control, tomato Botrytis)", "setting": "[1]; [6]", "result": 0, "unit": "%"}, {"measurement": "Test D rating (% disease control, wheat powdery mildew)", "setting": "[2]; [6]", "result": 0, "unit": "%"}, {"measurement": "Test B rating (% disease control, wheat leaf blotch)", "setting": "[3]; [6]", "result": 98, "unit": "%"}, {"measurement": "Test A rating (% disease control, wheat leaf rust)", "setting": "[4]; [6]", "result": 88, "unit": "%"}]}, {"smiles": "COc1ccc(C(O)c2c(Cl)nc(Br)n2-c2c(F)cccc2F)c(Cl)c1", "note": "(racemic) [compound 237]", "values": [{"measurement": "Test C rating (100 = 100% disease control, 0 = no disease control relative to the controls)", "setting": "[1]; [5]", "result": "100* %"}, {"measurement": "Test D rating (100 = 100% disease control, 0 = no disease control relative to the controls)", "setting": "[2]; [5]", "result": "98* %"}, {"measurement": "Test B rating (100 = 100% disease control, 0 = no disease control relative to the controls)", "setting": "[3]; [5]", "result": "100* %"}, {"measurement": "Test A rating (100 = 100% disease control, 0 = no disease control relative to the controls)", "setting": "[4]; [5]", "result": "100* %"}]}, {"smiles": "Cc1nc(Cl)c(C(O)c2ccc(F)cc2Br)n1-c1c(F)cccc1F", "note": "(stereo not drawn) [compound 383]", "values": [{"measurement": "Test C rating (% disease control, tomato Botrytis)", "setting": "[1]; [7]", "result": "99* %"}, {"measurement": "Test D rating (% disease control, wheat powdery mildew)", "setting": "[2]; [7]", "result": "92* %"}, {"measurement": "Test B rating (% disease control, wheat leaf blotch)", "setting": "[3]; [7]", "result": "100* %"}, {"measurement": "Test A rating (% disease control, wheat leaf rust)", "setting": "[4]; [7]", "result": "100* %"}]}, {"smiles": "Cc1ncc(C(O)c2ccc(F)cc2F)n1-c1c(F)cc(F)cc1Br", "note": "(stereo not drawn) [compound 410]", "values": [{"measurement": "Test C rating (% disease control, tomato Botrytis)", "setting": "[1]; [6]", "result": 97, "unit": "%"}, {"measurement": "Test D rating (% disease control, wheat powdery mildew)", "setting": "[2]; [6]", "result": 13, "unit": "%"}, {"measurement": "Test B rating (% disease control, wheat leaf blotch)", "setting": "[3]; [6]", "result": 100, "unit": "%"}, {"measurement": "Test A rating (% disease control, wheat leaf rust)", "setting": "[4]; [6]", "result": 100, "unit": "%"}]}, {"smiles": "Cc1nc(Cl)c(C(O)c2ccc(F)cc2Cl)n1-c1c(F)cc(F)cc1F", "note": "(stereo not drawn) [compound 166]", "values": [{"measurement": "Test C rating (100 = 100% disease control, 0 = no disease control relative to the controls)", "setting": "[1]; [5]", "result": "100* %"}, {"measurement": "Test D rating (100 = 100% disease control, 0 = no disease control relative to the controls)", "setting": "[2]; [5]", "result": "43* %"}, {"measurement": "Test B rating (100 = 100% disease control, 0 = no disease control relative to the controls)", "setting": "[3]; [5]", "result": "100* %"}, {"measurement": "Test A rating (100 = 100% disease control, 0 = no disease control relative to the controls)", "setting": "[4]; [5]", "result": "100* %"}]}, {"smiles": "Cc1ncc(C(O)c2ccc(F)cc2F)n1-c1c(F)cccc1F", "note": "(stereo not drawn) [compound 97]", "values": [{"measurement": "Test C rating (100 = 100% disease control, 0 = no disease control relative to the controls)", "setting": "[1]; [5]", "result": "0* %"}, {"measurement": "Test D rating (100 = 100% disease control, 0 = no disease control relative to the controls)", "setting": "[2]; [5]", "result": "0* %"}, {"measurement": "Test B rating (100 = 100% disease control, 0 = no disease control relative to the controls)", "setting": "[3]; [5]", "result": "100* %"}, {"measurement": "Test A rating (100 = 100% disease control, 0 = no disease control relative to the controls)", "setting": "[4]; [5]", "result": "95* %"}]}, {"smiles": "OC(c1ccc(Cl)cc1)c1c(Cl)nc(Cl)n1-c1c(F)cc(F)cc1Cl", "note": "(racemic) [compound 39]", "values": [{"measurement": "Test C rating (100 = 100% disease control, 0 = no disease control relative to the controls)", "setting": "[1]; [8]", "result": 99, "unit": "%"}, {"measurement": "Test D rating (100 = 100% disease control, 0 = no disease control relative to the controls)", "setting": "[2]; [8]", "result": 99, "unit": "%"}, {"measurement": "Test B rating (100 = 100% disease control, 0 = no disease control relative to the controls)", "setting": "[3]; [8]", "result": 100, "unit": "%"}, {"measurement": "Test A rating (100 = 100% disease control, 0 = no disease control relative to the controls)", "setting": "[4]; [8]", "result": 100, "unit": "%"}]}, {"smiles": "OC(c1ccc(F)cc1Br)c1cnc(C2CC2)n1-c1c(F)cccc1Br", "note": "(stereo not drawn) [compound 95]", "values": [{"measurement": "Test C rating (100 = 100% disease control, 0 = no disease control relative to the controls)", "setting": "[1]; [8]", "result": 0, "unit": "%"}, {"measurement": "Test D rating (100 = 100% disease control, 0 = no disease control relative to the controls)", "setting": "[2]; [8]", "result": 0, "unit": "%"}, {"measurement": "Test B rating (100 = 100% disease control, 0 = no disease control relative to the controls)", "setting": "[3]; [8]", "result": 0, "unit": "%"}, {"measurement": "Test A rating (100 = 100% disease control, 0 = no disease control relative to the controls)", "setting": "[4]; [8]", "result": 0, "unit": "%"}]}, {"smiles": "Cc1nc(Cl)n(-c2ccc(F)cc2Cl)c1C(O)c1c(F)ccc(Br)c1Cl", "note": "(racemic) [compound 34]", "values": [{"measurement": "Test C rating (100 = 100% disease control, 0 = no disease control relative to the controls)", "setting": "[1]; [8]", "result": 99, "unit": "%"}, {"measurement": "Test B rating (100 = 100% disease control, 0 = no disease control relative to the controls)", "setting": "[3]; [8]", "result": 98, "unit": "%"}, {"measurement": "Test A rating (100 = 100% disease control, 0 = no disease control relative to the controls)", "setting": "[4]; [8]", "result": 99, "unit": "%"}]}, {"smiles": "COc1cc(F)c(-n2c(C(O)c3ccc(F)cc3F)cnc2C)c(F)c1", "note": "(stereo not drawn) [compound 404]", "values": [{"measurement": "Test C rating (% disease control, tomato Botrytis)", "setting": "[1]; [6]", "result": 0, "unit": "%"}, {"measurement": "Test D rating (% disease control, wheat powdery mildew)", "setting": "[2]; [6]", "result": 0, "unit": "%"}, {"measurement": "Test A rating (% disease control, wheat leaf rust)", "setting": "[4]; [6]", "result": 98, "unit": "%"}]}, {"smiles": "COc1cc(F)c(C(O)c2c(Br)ncn2-c2ccc(F)cc2Cl)c(F)c1", "note": "(racemic) [compound 232]", "values": [{"measurement": "Test D rating (100 = 100% disease control, 0 = no disease control relative to the controls)", "setting": "[2]; [5]", "result": "0* %"}, {"measurement": "Test B rating (100 = 100% disease control, 0 = no disease control relative to the controls)", "setting": "[3]; [5]", "result": "59* %"}, {"measurement": "Test A rating (100 = 100% disease control, 0 = no disease control relative to the controls)", "setting": "[4]; [5]", "result": "100* %"}]}]}
